# Experimental data taken from publication PMC5381205, “A Clinically Relevant Variant of the Human Hydrogen Sulfide-Synthesizing Enzyme Cystathionine β-Synthase: Increased CO Reactivity as a Novel Molecular Mechanism of Pathogenicity?” (Oxidative Medicine and Cellular Longevity, 2017).
# Residue numbers refer to the chain shown, from its start. “And” between values parts separate entries of the source, which are not always exact repeats. Equal values may be shown once. Read-outs that look alike come from different tables or passages of the source.
# What was measured:
# [1] = biological target: T1, human CBS p.P49L (ferrous heme) (Homo sapiens, UniProt P35520, P49L); experiment: Stopped-flow kinetics of CO binding to ferrous CBS p.P49L; conditions: for CO binding fitted rate constant k2 / CO binding fitted rate constant k1 / CO binding fitted rate constant k3: 1 mM CO, 25°C; for CO binding fitted rate constant k2: 30% reaction amplitude
# T1 construct: Recombinant full-length human CBS p.P49L was expressed and purified; made in house; host or cells: E. coli
# T1 sequence (P35520 1-551 P49L): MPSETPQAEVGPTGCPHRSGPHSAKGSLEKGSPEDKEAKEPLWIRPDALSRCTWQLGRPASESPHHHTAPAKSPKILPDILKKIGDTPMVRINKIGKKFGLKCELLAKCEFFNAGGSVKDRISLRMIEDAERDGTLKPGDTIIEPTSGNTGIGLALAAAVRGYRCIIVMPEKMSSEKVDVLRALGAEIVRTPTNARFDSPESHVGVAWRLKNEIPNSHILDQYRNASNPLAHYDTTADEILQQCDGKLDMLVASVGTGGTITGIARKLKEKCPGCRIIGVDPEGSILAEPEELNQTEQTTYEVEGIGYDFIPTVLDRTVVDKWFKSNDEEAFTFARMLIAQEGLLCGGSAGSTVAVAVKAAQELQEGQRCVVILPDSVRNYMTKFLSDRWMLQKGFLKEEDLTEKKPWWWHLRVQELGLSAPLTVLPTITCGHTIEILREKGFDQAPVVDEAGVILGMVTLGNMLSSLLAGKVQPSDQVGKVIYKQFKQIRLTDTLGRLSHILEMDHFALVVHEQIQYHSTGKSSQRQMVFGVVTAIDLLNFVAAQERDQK
# Procedure: (§1) Time-resolved absorption spectroscopy experiments were carried out in a thermostated stopped-flow instrument (DX.17MV, Applied Photophysics), equipped with a photodiode-array (light path, 1 cm). To avoid light-induced artifacts, the intensity of the white-light incident beam was decreased and a filter cutting UV light at λ < 360 nm was employed. Absorption spectra were recorded with an acquisition time of 10 ms per spectrum according to a logarithmic time scale. All reactions were carried out at 25°C in buffer A. CBS p.P49L was thoroughly flushed with nitrogen, after which glucose oxidase (4 units·ml^−1), catalase (13 μg·ml^−1), superoxide dismutase (12 units·ml^−1), and glucose (3 mM) were added to scavenge oxygen, hydrogen peroxide, and superoxide anion. The protein was then placed on ice, protected from light to prevent possible damaging photoreactions. When indicated, CBS p.P49L was incubated with AdoMet for ≥10 minutes, prior to reduction with 90 µM sodium dithionite. CO association kinetics were studied by mixing in the stopped-flow apparatus reduced CBS p.P49L, in the absence or presence of AdoMet, with CO solutions and the spectra recorded over time. CO dissociation kinetics were evaluated by mixing the Fe(II)-CO adduct of CBS p.P49L with NO• stock solutions, prepared by equilibrating degassed ultra-pure water with NO• gas at 1 atm, further kept on ice protected from light.
# (§2) CO affinity titrations and CO binding and dissociation kinetic data were analyzed with the software MATLAB (Mathworks). Global fit analysis of spectral data was performed by singular value decomposition analysis combined with curve fitting.
# [2] = biological target: T2, human WT CBS (ferrous heme) (Homo sapiens, UniProt P35520); experiment: Stopped-flow kinetics of CO binding to ferrous WT CBS; conditions: WT enzyme
# T2 construct: employed in this study, corresponding to full-length CBS WT and p.P49L purified in the absence; made in house
# T2 sequence (P35520 1-551): T1 sequence (P35520 1-551 P49L) with L49P
# [3] = biological target: T3, recombinant human CBS p.P49L (Homo sapiens, UniProt P35520, P49L); experiment: H2S synthesis assay (amperometric and lead acetate methods), CBS p.P49L; format: biochemical; conditions: 37°C; for H2S-synthesizing activity stimulation by AdoMet: 500 μM AdoMet
# T3 construct: Recombinant full-length human CBS p.P49L was expressed and purified; made in house; host or cells: E. coli
# T3 sequence (P35520 1-551 P49L): T1 sequence (P35520 1-551 P49L)
# Procedure: (§3) H2S production by recombinant human CBS variants was measured at 37°C, either by amperometry using a H2S-selective electrode (World Precision Instruments) or by the lead acetate method. Purified CBS (0.5–1 μM) was incubated for 10 minutes with 50 μM PLP, 260 U/ml catalase, and 0.4–2.0 mM homocysteine in the absence or presence of 0.5 mM AdoMet, after which 10 mM cysteine was added to trigger the reaction. Amperometric assays were performed using an ISO-H2S-2 hydrogen sulfide sensor coupled to an Apollo 4000 Free Radical Analyzer (World Precision Instruments). After recording H2S production for 3 minutes, the electrode was internally calibrated by adding 4 μM NaHS (corresponding to 2 μM H2S at pH 7.0). Finally, 50 μM o-acetylserine and 200 nM Entamoeba histolytica o-acetylserine sulfhydrylase were added to the reaction mixture to remove H2S from solution and bring the signal back to baseline. Activity assays by the lead acetate method were carried out in a thermostated cuvette under stirring, according to [5]. Lead acetate (400 μM) was added to the reaction mix prior to cysteine addition and H2S production monitored at 390 nm in an Agilent Cary-60 spectrophotometer.
# recombinant human WT CBS [4] = biological target: T4, recombinant human WT CBS (Homo sapiens, UniProt P35520); experiment: H2S synthesis assay (amperometric and lead acetate methods), WT CBS; format: biochemical; conditions: for H2S-synthesizing activity stimulation by AdoMet: 500 μM AdoMet, 37°C
# T4 construct: employed in this study, corresponding to full-length CBS WT and p.P49L purified in the absence; made in house
# T4 sequence (P35520 1-551): T1 sequence (P35520 1-551 P49L) with L49P
# Procedure: as §3
# recombinant human WT CBS [5] = biological target: T4, recombinant human WT CBS; conditions: isolated proteins and bacterial or human cell lysates; cited from earlier work
# [6] = biological target: T1, human CBS p.P49L (ferrous heme); experiment: Anaerobic CO titrations of reduced CBS p.P49L (UV-visible absorption); format: binding; conditions: 20°C
# Procedure: UV-visible absorption spectra of oxidized and reduced CBS p.P49L and WT were recorded in an Agilent Cary-60 spectrophotometer. Anaerobic titrations of reduced CBS p.P49L with CO were performed at 20°C in an Agilent Cary-60 or a Shimadzu UVPC-1800 spectrophotometer. Gas exchange was prevented either by filling the quartz cuvette and sealing it with a rubber-cap or by adding mineral oil on top of the aqueous medium. Anaerobic conditions were ensured by nitrogen flushing and addition of glucose oxidase (4 units·ml^−1), catalase (13 μg·ml^−1), superoxide dismutase (12 units·ml^−1), and glucose (3 mM) to scavenge contaminant oxygen, hydrogen peroxide, and superoxide anion. CBS p.P49L and WT (1.4–1.6 μM in heme) were reduced with 90 μM sodium dithionite, diluted from a 45 mM stock solution (quantitated using ε314 nm = 8,043 M^−1·cm^−1 [50]). CO stock solutions were prepared by equilibrating thoroughly degassed buffer A with the pure gas at 1 atm, yielding 1 mM CO at 20°C. After each CO addition with gas-tight Hamilton syringes, the spectral changes were visually inspected in real time and a new addition was immediately made when no more changes were observed.
# According to [16, 19, 20, 51], two apparent Kd (Kd1 and Kd2) were used to satisfactorily fit the CO affinity data. The Kd1 and Kd2 values were obtained by fitting the data to (1), where PL is the concentration of CO-bound CBS p.P49L, PT and LT are, respectively, the total CBS p.P49L and CO concentrations, and α1 and α2 are, respectively, the protein fractions binding CO at higher (Kd1) and lower (Kd2) affinity. (1) PL=α1PT+LT+Kd1−PT+LT+Kd1^2−4PTLT+α2PT+LT+Kd2−PT+LT+Kd2^2−4PTLT/2.
# as §2
# [7] = biological target: T5, human CBS p.P49L Fe(II)-CO adduct (Homo sapiens, UniProt P35520, P49L); experiment: Stopped-flow kinetics of CO dissociation (displacement by NO•) from CBS p.P49L; format: binding; conditions: for CO displacement by NO• rate constant k2: 25% reaction amplitude
# T5 construct: Recombinant full-length human CBS p.P49L was expressed and purified; made in house; host or cells: E. coli
# T5 sequence (P35520 1-551 P49L): T1 sequence (P35520 1-551 P49L)
# Procedure: as §1, §2
# [8] = biological target: T6, human WT CBS Fe(II)-CO adduct (Homo sapiens, UniProt P35520); experiment: Stopped-flow kinetics of CO dissociation (displacement by NO•) from WT CBS; format: binding; conditions: WT enzyme; NO• 900 µM after mixing; 75% relative amplitude; data not shown
# T6 construct: employed in this study, corresponding to full-length CBS WT and p.P49L purified in the absence; made in house
# T6 sequence (P35520 1-551): T1 sequence (P35520 1-551 P49L) with L49P
# [9] = AdoMet-bound CBS p.P49L, 35% reaction amplitude
smiles,measurement,setting,value
"C[S+](CC[C@H](N)C(=O)[O-])C[C@H]1O[C@@H](n2cnc3c(N)ncnc32)[C@H](O)[C@@H]1O (stereo partly drawn) [AdoMet, S-Adenosyl-L-methionine]",fold increase in the CO association rate in the presence of AdoMet,[1]; p.P49L variant,~ 4.5 fold
same,fold increase in the CO association rate in the presence of AdoMet,[2],~ 2 fold
same,H2S-synthesizing activity stimulation by AdoMet,[3]; p.P49L purified in the absence of PLP (PLP-untreated),1.4 fold
same,H2S-synthesizing activity stimulation by AdoMet,[3]; p.P49L purified in the presence of 20 μM PLP (PLP-treated),1.1 fold
same,AdoMet activation factor observed for the WT enzyme,"recombinant human WT CBS [4]; WT enzyme, overall",≤ 2 fold
same,H2S-synthesizing activity stimulation by AdoMet,recombinant human WT CBS [4]; WT purified in the absence of PLP (PLP-untreated),1.5 fold
same,H2S-synthesizing activity stimulation by AdoMet,recombinant human WT CBS [4]; WT purified in the presence of 20 μM PLP (PLP-treated),1.9 fold
same,"AdoMet activation factor of CBS enzymatic activity, as usually reported",recombinant human WT CBS [5],2–5 fold
"[C-]#[O+] [CO, Carbon monoxide]",Kd,"[6]; AdoMet-bound p.P49L CBS (500 μM AdoMet), 30% relative amplitude, read-out: KdCO,2",1500 nM and 2100 nM
same,Kd,"[6]; AdoMet-bound p.P49L CBS (500 μM AdoMet), 70% relative amplitude, upper limit, read-out: KdCO,1",≤ 30 nM
same,Kd,"[6]; AdoMet-free p.P49L CBS, higher-affinity fraction, 60% relative amplitude, read-out: KdCO,1",60 nM and 50 nM
same,Kd,"[6]; AdoMet-free p.P49L CBS, lower-affinity fraction, 40% relative amplitude, read-out: KdCO,2",21000 nM and 22000 nM
same,CO binding fitted rate constant k2,[1]; AdoMet-bound CBS p.P49L,0.26 s⁻¹
same,CO binding fitted rate constant k1,[1]; [9],2.55 s⁻¹
same,CO binding fitted rate constant k3,[1]; [9],0.022 s⁻¹
same,CO binding fitted rate constant k1,"[1]; AdoMet-free CBS p.P49L, 25% reaction amplitude",0.48 s⁻¹
same,CO binding fitted rate constant k2,[1]; AdoMet-free CBS p.P49L,0.05 s⁻¹
same,CO binding fitted rate constant k3,"[1]; AdoMet-free CBS p.P49L, 45% reaction amplitude",0.006 s⁻¹
same,CO displacement by NO• rate constant k2,"[7]; AdoMet-bound CBS p.P49L (500 μM before mixing), 900 μM NO•, Figure 5(b) fit",0.038 s⁻¹
same,CO displacement by NO• rate constant k1,"[7]; AdoMet-bound CBS p.P49L (500 μM before mixing), 900 μM NO•, 75% reaction amplitude, Figure 5(b) fit",1.96 s⁻¹
same,CO displacement by NO• rate constant k2,"[7]; AdoMet-free CBS p.P49L, 900 μM NO•, Figure 5(b) fit",0.035 s⁻¹
same,CO displacement by NO• rate constant k1,"[7]; AdoMet-free CBS p.P49L, 900 μM NO•, 75% reaction amplitude, Figure 5(b) fit",1.93 s⁻¹
same,CO displacement by NO• rate constant k1,"[7]; CBS p.P49L, NO• 900 µM after mixing, 75% relative amplitude, no effect of AdoMet",2.0 ± 0.1 s⁻¹
same,CO displacement by NO• rate constant k1,[8],2.0 ± 0.1 s⁻¹
"Cc1ncc(COP(=O)(O)O)c(C=O)c1O [PLP, Pyridoxal 5′-phosphate]",basal H2S-synthesizing activity of p.P49L after PLP supplementation along the purification,"[3]; p.P49L purified in the presence of 20 μM PLP (PLP-treated), compared with WT",basal activity similar to the WT enzyme
